Experimental data as given in patent publication US10658848B2, “Materials for use with aqueous redox flow batteries and related methods and systems” (Massachusetts Institute of Technology, priority 2014, dated 2020).
Values after ≈ are worked out from the molar mass of the structure shown. Read-outs that look alike come from different tables or passages of the source.

Key:
Assay type in all cases: physicochemical
[1] = Quantitative CV and rotating disk voltammetry with numerical fitting (Randles-Sevcik, Levich); conditions: for DO, diffusion coefficient for quinoxaline / DR, diffusion coefficient for the reduced species / α, transfer coefficient for the reduction (forward) reaction: 295 K; for number of electrons transferred, n: ± 95% confidence interval
From the text: A set of quantitative experiments were designed to calculate the number of electrons transferred, diffusion coefficients, and transfer coefficients using the Randles-Sevcik equation for irreversible CVs (Eq. (E1)) and the Levich equation (Eq. (E2)). In Eq. (E1), ip is the peak current, n is the number of electrons transferred, α is the transfer coefficient, A is the electrode surface area, F is Faraday's constant, C is the reactant concentration, s is the scan rate, R is the universal gas constant, T is temperature, and D is the diffusion coefficient (e.g., see Compton et al. Understanding Voltammetry, 2nd ed., Imperial College Press, London, 2011). Additionally, in Eq. (E2), iL is the RDV limiting current, ω is the electrode rotation rate, and v is the kinematic viscosity (e.g., see Bard et al. Electrochemical Methods: Fundamentals and Applications, John Wiley & Sons, Danvers, 2001). Kinematic viscosities were determined from dynamic viscosities, which were interpolated from tables by Zaytsev and […] et al. Properties of Aqueous Solutions of Electrolytes, 1st ed., CRC Press, Boca Raton, 1992), and electrolyte densities, which were measured using a balance and known solution volume. All remaining variables are constants or were determined by the experimental design. Quantitative CV and RDV experiments were carried out in a water-jacketed three-electrode cell. Chilled water at a temperature of 295 K (22° C.) was continuously passed through the water jacket in order to maintain a constant temperature throughout the experiment. A rotating disk electrode with a 0.5 cm diameter glassy carbon electrode (0.196 cm^2) was used as a working electrode. A coiled Pt wire used as a counter electrode was housed in a glass compartment that was separated from the main chamber by a porous frit. Both chambers were filled with the same bulk electrolyte. The reference electrode was a double junction Ag/AgCl (10% KNO3), which had been calibrated against a commercially available reversible hydrogen electrode (BAS Inc.) in 1 M NaHCO3 solution by measuring OCV between the two electrodes. All cell components were purchased from Pine Instruments Co., including the rotator and motor used in RDV experiments. Cells were filled with 80 mL of solution, and the solution was bubbled with argon using a porous glass frit at a rate of 50 mL/min for 1 h before taking any electrochemical measurements. After 1 h, the argon gas bubbling stream was switched to an argon gas blanket above the solution. Three cycles of CV, with a stationary electrode, were recorded at each of the following scan rates: 5, 10, 20, 50, and 100 mV/s. Between CV and RDV experiments, the glassy carbon electrode was re-polished before beginning RDV experiments. […] Quantitative voltammetry experiments were performed in triplicate using freshly prepared solution and freshly polished glassy carbon electrodes for each trial. CV experiments were performed at five different scan rates, and RDV experiments were performed at five different rotation speeds for each electrolyte of interest. The aim of these experiments was to determine the number of electrons transferred during a quinoxaline redox reaction, the diffusion coefficients of quinoxaline and its reduced species in each electrolyte, and the transfer coefficients of the redox reactions. FIG. 5a-e and FIG. 6a-e display the third cycle of typical CV data at different scan rates and the second cathodic scan of typical RDV data at different rotation rates, respectively. In order to quantitatively determine the number of electrons transferred, a numerical fitting technique was employed. Among the irreversible Randles-Sevcik (Eq. (E1)) and Levich (Eq. (E2)) equations, there are four unknown variables: the number of electrons transferred, n, two diffusion coefficients, DO/DR, and the transfer coefficient, α. […]

[2] = Solubility limit of quinoxaline in electrolytes and DI H2O; conditions: thermodynamic from solid
Protocol: The solubility limit (at room temperature) of quinoxaline in several electrolytes and DI H2O was estimated using the following method. Scintillation vials were filled with a known volume of electrolyte, and quinoxaline was added in 0.5 M increments. The vials were then vortex sonicated for ˜5 min between quinoxaline additions. Once no more quinoxaline could be dissolved into the vial, the solubility limit was recorded. This method was accurate to the lowest 0.5 M concentration, and solution volume changes due to quinoxaline addition were not considered.

[3] = Repeated CV cycling of 5 mM quinoxaline in 1 M potassium chloride
Protocol: Electrochemical experiments were carried out using other electrolytes.

[4] = 0.45M K2SO4/0.1M KOH, pH 12.9, n=2 fixed
[5] = 0.495M K2SO4/0.01M KOH, pH 11.8, n=2 fixed
[6] = 0.9M KCl/0.1M KOH, pH 12.9, n=2 fixed
[7] = 0.99M KCl/0.01M KOH, pH 11.8, n=2 fixed

DO, diffusion coefficient for quinoxaline [1, 4]: 7.3 ± 1.7 10^−6 cm^2/s | DR, diffusion coefficient for the reduced species [1, 4]: 4.4 ± 0.4 10^−6 cm^2/s | α, transfer coefficient for the reduction (forward) reaction [1, 4]: 0.60 ± 0.00 | number of electrons transferred, n ([1]; 0.45M K2SO4/0.1M KOH, pH 12.9): 2.54 ± 0.43 | DO, diffusion coefficient for quinoxaline [1, 5]: 6.4 ± 0.7 10^−6 cm^2/s | DR, diffusion coefficient for the reduced species [1, 5]: 4.8 ± 1.0 10^−6 cm^2/s | α, transfer coefficient for the reduction (forward) reaction [1, 5]: 0.59 ± 0.00 | number of electrons transferred, n ([1]; 0.495M K2SO4/0.01M KOH, pH 11.8): 2.26 ± 0.33 | DO, diffusion coefficient for quinoxaline [1, 6]: 6.7 ± 0.4 10^−6 cm^2/s | DR, diffusion coefficient for the reduced species [1, 6]: 5.9 ± 1.0 10^−6 cm^2/s | α, transfer coefficient for the reduction (forward) reaction [1, 6]: 0.62 ± 0.02 | number of electrons transferred, n ([1]; 0.9M KCl/0.1M KOH, pH 12.9): 2.90 ± 0.03 | DO, diffusion coefficient for quinoxaline [1, 7]: 6.0 ± 0.6 10^−6 cm^2/s | DR, diffusion coefficient for the reduced species [1, 7]: 4.9 ± 2.2 10^−6 cm^2/s | α, transfer coefficient for the reduction (forward) reaction [1, 7]: 0.59 ± 0.04 | number of electrons transferred, n ([1]; 0.99M KCl/0.01M KOH, pH 11.8): 1.89 ± 0.21 | DO, diffusion coefficient for quinoxaline ([1]; 1M KOH, pH 13.7, n=2 fixed): 5.8 ± 0.9 10^−6 cm^2/s | DR, diffusion coefficient for the reduced species ([1]; 1M KOH, pH 13.7, n=2 fixed): 4.0 ± 1.7 10^−6 cm^2/s | α, transfer coefficient for the reduction (forward) reaction ([1]; 1M KOH, pH 13.7, n=2 fixed): 0.60 ± 0.05 | number of electrons transferred, n ([1]; 1M KOH, pH 13.7): 2.34 ± 0.72 | diffusion coefficient of quinoxaline relative to the reduced species ([1]; in each electrolyte of Table E3): 1.1-1.7 × | mean calculated value for n (navg) ([1]; mean over the electrolytes in Table E2): 2.34 | transfer coefficient α for the forward reaction ([1]; overall, n=2 fixed): ≈ 0.6 | number of electrons transferred, n, rounded to nearest integer ([1]; rounded from navg): 2 | theoretical capacity ([1]; two-electron transfer process): 410 mAh/g | solubility ([2]; 0.45 M K2SO4/0.1 M KOH electrolyte, aqueous buffer, 0.45M K2SO4/0.1M KOH, pH 12.9, room temperature, three phase separation, read-out: Solubility Limit): 500 mM (≈ 65.1 mg/mL) | solubility ([2]; 0.495 M K2SO4/0.01 M KOH electrolyte, aqueous buffer, 0.495M K2SO4/0.01M KOH, pH 11.8, room temperature, three phase separation, read-out: Solubility Limit): 500 mM (≈ 65.1 mg/mL) | solubility ([2]; 0.9 M KCl/0.1 M KOH electrolyte, aqueous buffer, 0.9M KCl/0.1M KOH, pH 12.9, room temperature, bed of small crystals, read-out: Solubility Limit): 4000 mM (≈ 521 mg/mL) | solubility ([2]; 0.99 M KCl/0.01 M KOH electrolyte, aqueous buffer, 0.99M KCl/0.01M KOH, pH 11.8, room temperature, bed of small crystals, read-out: Solubility Limit): 4000 mM (≈ 521 mg/mL) | solubility ([2]; 1 M KOH electrolyte, aqueous buffer, 1M KOH, pH 13.7, room temperature, dendritic precipitation of crystals, read-out: Solubility Limit): 500 mM (≈ 65.1 mg/mL) | solubility ([2]; aqueous electrolytes containing K2SO4 or only KOH, aqueous buffer, read-out: solubility of quinoxaline): ≤ 500 mM | solubility ([2]; solutions containing KCl, aqueous buffer, read-out: solubility of quinoxaline): ≤ 4000 mM | solubility ([2]; water, DI H2O, pH 7.0, room temperature, bed of small crystals, read-out: Solubility Limit): 4500 mM (≈ 586 mg/mL) | cathodic and anodic currents on repeated cycling ([3]; 5 mM quinoxaline in 1 M potassium chloride, no added base, glassy carbon electrode): decreased with repeated cycling
SMILES: c1ccc2nccnc2c1 [quinoxaline]
peak currents on repeated cycling ([3]; 5 mM quinoxaline in 1 M potassium chloride with 10 mM potassium hydroxide): no decrease in peak currents was observed after 100 or 200 cycles
